Experimental data reported in PubChem BioAssay AID493003 (Sanford-Burnham Center for Chemical Genomics, 2010).
Activity calls are given as the source filed them. No rule for the calls is given here.

Test system: S. cerevisiae tim10-1 mutant growth, luminescence
Assay: growth inhibitors of tim10-1 mutant yeast, dose response, luminescence, S. cerevisiae, uHTS hits (AID 493003);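 also: yeast growth measured after about 22 hours at 25 °C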

SMILES | IC50
Oc1ccc(-c2nccc(-c3ccc(Cl)cc3)n2)cc1 | 24.6 µM
COc1ccc(OCC(=O)O/N=C(\N)Cc2ccc(Cl)cc2)cc1 | 38.4 µM
CCc1c(C)[nH]n(-c2nc(-c3ccccc3)cs2)c1=O | 38.4 µM
S=C(NCCCc1ccccc1)Nc1ccc(Cl)cc1 | 11.4 µM
O=C(Nc1ccc(C(=O)N2CCN(c3ccc(F)cc3)CC2)cc1)C1=CSCCO1 | 44.3 µM
Cc1nn(-c2ccc(F)cc2)c(C)c1NS(=O)(=O)c1ccc(Cl)cc1 | 19.9 µM
O=C(Nc1cccc(N2C(=O)C=CC2=O)c1)c1cccs1 | 4.4 µM
Clc1ccccc1OCc1nnc(-c2ccccc2Br)o1 | 27.9 µM
Cn1c(Cl)cnc1C1CC(=O)c2cc(Cl)ccc2O1 (configuration not stated) | 8.24 µM
Cc1ccc(F)c([C@H]2[C@@H]3C=CCC[C@@]3(C)C(=O)N2Cc2ccccc2)c1 | 14.6 µM
Fc1ccc(CNC(=S)Nc2cccc(C(F)(F)F)c2)cc1 | 16.1 µM
C=CCNc1nc(-c2ccccn2)nnc1-c1ccccc1 | 29.3 µM
CCSc1ccc2c(c1)N(CCCN1CCN(C)CC1)c1ccccc1S2 | 24.9 µM
CCN1C(=O)C2(C(C#N)=C(N)Oc3c2c(C)nn3-c2ccccc2)c2ccccc21 (configuration not stated) | 22.2 µM
FC(F)Sc1ccc(NC(=S)NC2CCCC2)cc1 | 20.8 µM
O=C(O/N=C(/c1ccccc1)c1ccncc1)c1ccccc1[N+](=O)[O-] | 29 µM
CSc1ccccc1NC(=O)C1CC(c2c(F)cccc2Cl)=NO1 (configuration not stated) | 25.9 µM
Cc1c(Cl)c([N+](=O)[O-])nn1Cc1ccc(C(=O)Nc2ccc(Cl)cn2)o1 | 47.6 µM
COc1ccc(/C=C2\CCc3ccccc3C2=O)cc1Cn1cccn1 | 25.6 µM
CCOC(=O)N1CCN(S(=O)(=O)c2ccc(C(=O)N(CCN(CC)CC)c3nc4ccc(C)cc4s3)cc2)CC1 | 60.8 µM
Cc1cc(Nc2ccccc2Cl)nc(-c2ccccc2O)n1 | 33.2 µM
N/C(=N\OC(=O)CCC1CCCCC1)c1ccccn1 | 26.8 µM
Clc1ccc(Cn2c(/C=C/c3ccco3)nc3ccccc32)cc1 | 45.7 µM
Nc1nc(Cl)cc(N2CCC(c3cc(-c4ccc(Cl)cc4)n[nH]3)CC2)n1 | 17.8 µM

SMILES | IC50
CCCCCCC(=O)N(O)C1CC(=O)N(c2ccc(C)cc2)C1=O (configuration not stated) | 12.2 µM
O=C(CSCc1ccccc1Cl)NNC(=S)Nc1ccccc1 | 33 µM
Oc1c(Cl)cc(Cl)cc1CNc1ccc(Br)cn1 | 33.2 µM
CC(C)(C)OC(=O)N[C@@H](Cc1ccccc1)c1nnc(S(=O)(=O)Cc2cccc(F)c2)o1 | 5.87 µM
Fc1cc(F)cc(Nc2nc(Cl)nc(NC3CCCC3)n2)c1 | 37.7 µM
Fc1ccc(-c2csc3ncnc(Nc4ccc(N5CCOCC5)cc4)c23)cc1 | 41.2 µM
O=C(Oc1ccc(C(=S)N2CCOCC2)cc1)c1ccccc1[N+](=O)[O-] | 25.4 µM
Cc1cc(N2C3CCC2CC(O)(c2ccc(F)cc2)C3)nc(-c2ccccc2)n1 (configuration not stated) | 25.4 µM
CC[C@@H]1CC=C[C@H]2[C@H]1C(=O)N(Cc1ccccc1)[C@H]2c1ccoc1 | 7.61 µM
COc1ccccc1C(CCNCc1ccccc1)c1ccc(OC(C)C)cc1 (configuration not stated) | 19.9 µM
Nc1c(C(=O)Nc2ccccc2)c2nc3ccccc3nc2n1CCCN1CCOCC1 | 8.41 µM
Cc1cc(C)cc(NC(=O)c2cc(S(=O)(=O)NCc3ccco3)ccc2F)c1 | 32.3 µM
C=CCc1cccc(CNc2ccc(Br)cc2)c1O | 21.8 µM
CNC(=O)c1nnsc1S(=O)(=O)c1ccc(Cl)cc1 | 16.4 µM
COc1cc(/C=N/N=C2/C(=O)Nc3ccccc32)cc(OC)c1O | 30.1 µM
COc1ccc(-c2nncnn2)cc1 | 8.84 µM
Oc1ccc(-c2nccc(-c3ccc(F)cc3)n2)cc1 | 50.3 µM
O=C(/C(N=Nc1cccc(C(F)(F)F)c1)=C(/O)c1cccs1)C(F)(F)F | > 100 µM (inactive)
CCCc1ccc(-c2c(C)sc(N)c2C#N)cc1 | 19.2 µM
N/C(=N\OC(=O)CCCc1ccccc1)c1ccccc1 | 19.9 µM
CCCc1cc(-c2nc(-c3ccc(C)cc3)cs2)ccn1 | 49.7 µM
COc1ccc(Br)cc1[C@H]1[C@@H]2C=CCC[C@@]2(C)C(=O)N1Cc1ccccc1 | 12.1 µM
c1ccc(-c2cc(-c3nc4ccccc4[nH]3)c3ccccc3n2)cc1 | 49.6 µM
CCCOc1ccc2c(c1)C(=NN=C(N)N)c1cc(OCCC)ccc1-2 | 19.8 µM

SMILES | IC50
Fc1ccccc1CNC(=S)Nc1cccc(C(F)(F)F)c1 | 10.5 µM
Cc1ccc(-c2csc(-c3c[nH]c4ccccc34)n2)cc1 | 25.4 µM
CCN(CC)c1ccc(NC(=O)CCCCCN2C(=O)c3ccccc3C2=O)cc1 | 14.3 µM
C/C(=N\N=C1\NC(=O)C(CC(=O)Nc2ccc(C)c(Cl)c2)S1)C(C)(C)C (configuration not stated) | 47.3 µM
N/C(=N\OC(=O)CCCOc1ccccc1)c1cccc([N+](=O)[O-])c1 | 53.4 µM
CCc1nn(-c2ccccc2)c(=S)c2ccccc12 | 22.8 µM
CN(CCCC(=O)O)c1ccc(N=Nc2ccc([N+](=O)[O-])cc2)cc1 | 19.5 µM
Cc1cc2c(cc1C)CSC(c1ccccc1O)SC2 | 20.7 µM
CN(C)CCCN(C(=O)c1ccc(Cl)s1)c1nc2cc3c(cc2s1)OCO3 | 29.4 µM
O=C(CN1CCN(S(=O)(=O)c2ccc3ccccc3c2)CC1)Nc1ccc2c(c1)CCC2 | 36.6 µM
O=C1C=C(NC(=O)Nc2ccc(Cl)c(Cl)c2)CCC1 | 95.6 µM
Cc1cc(NC(=O)c2ccccc2Oc2ccccc2)no1 | 60.3 µM
CN1/C(=C\C(=O)Nc2ccc(Br)cc2)C(C)(C)c2ccccc21 | 38.7 µM
O=C1C2C3C=CC(CO)(O3)C2C(=O)N1c1ccccc1-c1ccccc1 (configuration not stated) | 4.92 µM
O=C(Nc1ccc(F)cc1)c1cccc2c1C(=O)N(Cc1ccccn1)C2 | 18 µM
S=C(Nc1ccc(Cl)cc1)c1nc2ccccc2[nH]1 | 23.7 µM
O=[N+]([O-])c1ccc(Sc2cccc3cccnc23)c([N+](=O)[O-])c1 | 78.7 µM
O=C(/C=C/c1ccc2c(c1)OCCCO2)c1ccccc1O | 12.2 µM
N/C(=N\OC(=O)c1ccccc1Cl)c1cccc([N+](=O)[O-])c1 | 23 µM
Cc1[nH]n(-c2ccccc2)c(=O)c1C(c1ccccc1[N+](=O)[O-])C(C#N)C#N (configuration not stated) | 18.2 µM
Cc1cccc(/C=C2\Oc3cc(OS(C)(=O)=O)ccc3C2=O)c1 | 31.9 µM
Cn1c(CSc2nnc(SCc3ccccc3)s2)nc2ccccc21 | 19.6 µM
COc1ccc(C)cc1NC(=O)NCCC1=CCCCC1 | 32.2 µM
COc1ccccc1N1CCN(CC(=O)Nc2ccc(Cl)c(C(F)(F)F)c2)CC1 | 58.7 µM

SMILES | IC50
Cc1[nH]c(-c2ccc(F)cc2)cc1C(=O)N1CCN(c2ccccc2F)CC1 | 35.5 µM
CCc1ccc2nc3nc(C)cc(C)c3c(N)c2c1 | 25.1 µM
N/C(=N\OC(=O)c1cccnc1)c1ccc(Cl)cc1Cl | 17.8 µM
Cc1cc(C)cc(NC(=O)c2ccc(Cn3nc(C)c(Cl)c3C)o2)c1 | 68.7 µM
O=Cc1c[nH]c2cccc(OCc3ccccc3)c12 | 27.4 µM
O=C1CN(C(=O)/C=C/c2cccc(Cl)c2)c2ccccc2N1 | 30.3 µM
COc1c(/C=C2\SC(=Nc3ccccc3Cl)NC2=O)cccc1[N+](=O)[O-] | 22.5 µM
C[C@@]12CCC=C[C@H]1[C@H](c1ccc3ccccc3c1)N(Cc1ccccc1)C2=O | 22.2 µM
Fc1c(F)c(C(F)(F)F)c(F)c(F)c1N/N=C\c1cccs1 | 11 µM
COc1ccc(C(=O)/C=C/c2ccccc2)c(O)c1 | 34.2 µM
Cn1nc(-c2ccccc2)cc1NC(=O)Nc1ccc(C(C)(C)C)cc1 | 20.3 µM
COc1ccc2[nH]c3c(=O)n4c(nc3c2c1)SCCC4 | 40.7 µM
Cc1ccccc1OCC(=O)Nc1ccc(Cc2ccncc2)cc1 | 41.7 µM
N/C(=N\OC(=O)CCCc1ccccc1)c1ccccc1Cl | 16.4 µM
O=C(OCn1ncc(Br)c(Br)c1=O)c1ccc(F)cc1 | 3.3 µM
Cc1cccc(C(=O)CC(=O)c2cc(Cl)ccc2O)c1 | 19 µM
O=S(=O)(Nc1cccc2cccnc12)c1ccc(S(=O)(=O)N2CCCC2)cc1 | 41.2 µM
O=C(Cc1ccc(Cl)c(Cl)c1)Nc1ccc(SC(F)F)cc1 | 46.7 µM
Cc1ccc(/C(N)=N/OC(=O)c2ccc3c(c2)OCO3)cc1 | 9.34 µM
COc1cccc(-c2nn(C)c3sc(C(=O)N4CCN(c5ccccn5)CC4)cc23)c1 | 46.2 µM
CCOC(=O)c1c(N)sc2c(OC)c(Br)ccc12 | 30.5 µM
COC(=O)c1ccccc1NC(=S)NC(=O)C1CCCCC1 | 42.5 µM
COc1ccc(/C=C/C(=O)c2ccccc2)cc1Cn1nnc2ccccc21 | 6.4 µM
Cc1ccc(C(=O)O/N=C(\N)c2ccccn2)c(C)c1 | 17 µM

SMILES | IC50
Cn1c(/C=C/c2ccc([N+](=O)[O-])o2)nc2ccccc2c1=O | 7.3 µM
CC(C)(O)[C@H]1O[C@H]2CC[C@@]3(C)[C@@](O)(CC[C@H]4Cc5c([nH]c6ccccc56)[C@@]43C)C2=CC1=O | 33.5 µM
CCn1nc(C)c(C(=O)Nc2cc(Oc3ccc(Cl)cc3)cc([N+](=O)[O-])c2)c1C | 43.1 µM
O=C(CCNc1ccc(Cc2ccncc2)cc1)c1cccc([N+](=O)[O-])c1 | 49.2 µM
O=C(NC1CCCCC1)c1ccc(-c2ccc(Cl)cc2)o1 | 17.4 µM
COc1ccccc1N1CCN(C(=O)c2cc3sccc3n2C)CC1 | 34.6 µM
Cc1cccc(Oc2cc(NC(=O)c3ccccc3)cc([N+](=O)[O-])c2)c1 | 20.4 µM
Cc1ccc(NC(=S)NCc2ccc3[nH]c4c(c3c2)CCCC4)cc1 | 22.1 µM
CO/N=C/c1ccc(Sc2ccccc2N)c([N+](=O)[O-])c1 | 56.4 µM
O=C(Nc1cccc(Cl)c1)N1N=CCC1c1ccccc1 (configuration not stated) | 29.6 µM
CCNC(=S)N/N=C/c1ccc(-c2ccccc2)o1 | 34.8 µM
Cn1c(-c2ccccc2O)cc2ccccc21 | 29.5 µM
O=C(Nc1cc(Sc2ccccn2)cc([N+](=O)[O-])c1)c1cccc(Cl)c1 | 34.9 µM
O=C1CC(N2CCCCCC2)C(=O)N1c1ccc(F)cc1 (configuration not stated) | 13.9 µM
COc1cc(/C=C/C(=O)CC(=O)/C=C/c2ccc(O)c(OC)c2)ccc1O | 19.7 µM
C/C(=N\NC(=S)NCc1ccccc1)c1ccc(Cl)s1 | 16.4 µM
O=c1c2ccccc2nc(/C=C/c2ccc([N+](=O)[O-])o2)n1CCCO | 4.53 µM
CCCOc1ccccc1NC(=O)/C=C/C(N)=O | 5.67 µM
COc1ccc2cc3cc(C(=O)NCCN4CCN(Cc5ccccc5)CC4)oc3nc2c1 | 27.9 µM
COc1cccc(N2[C@@H](CC(C)=O)c3ccc(/C=C/C(C)=O)cc3S2(=O)=O)c1 | 18.3 µM
CC(=O)c1ccc(NC(=S)NC(C)c2ccc(Cl)cc2Cl)cc1 (configuration not stated) | 13.2 µM
